Measurements reported in patent US20080009418A1, “Selective Inhibitors” (Alchemia LTD., priority 2004, published 2008).

Key:
[1] = target: T1, Human opioid (ORL1) (Homo sapiens, UniProt P41146); assay: Radioligand binding, human opioid ORL1 membranes, FlashPlate, [125I]-Nociceptin; conditions: compound at 10 μM; for A10 radioligand binding, percentage inhibition / A10: inhibition of radioligand binding, human opioid (ORL1): [125I]-Nociceptin
T1 construct: purchased Perkin Elmer Biosignal
Method in brief: (§1)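 Cloned human receptor membranes were coated onto FlashPlate wells and incubated with radioligand and compound (added from a 0.5 mM DMSO daughter plate) for 1 hour at room temperature in the dark. Scintillation counting gave percent inhibition, with DMSO defining total and reference ligand defining non-specific binding.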

[2] = target: T2, Human κ-Opioid (KOP) (Homo sapiens, UniProt P41145); assay: Radioligand binding, human κ-opioid (KOP) membranes, filtration, [3H]-Diprenorphine; conditions: compound at 10 μM; for A2 radioligand binding, percentage inhibition / A2: inhibition of radioligand binding, human κ-opioid (KOP): [3H]-Diprenorphine
T2 construct: purchased Perkin Elmer Biosignal
T2 sequence (P41145 whole entry): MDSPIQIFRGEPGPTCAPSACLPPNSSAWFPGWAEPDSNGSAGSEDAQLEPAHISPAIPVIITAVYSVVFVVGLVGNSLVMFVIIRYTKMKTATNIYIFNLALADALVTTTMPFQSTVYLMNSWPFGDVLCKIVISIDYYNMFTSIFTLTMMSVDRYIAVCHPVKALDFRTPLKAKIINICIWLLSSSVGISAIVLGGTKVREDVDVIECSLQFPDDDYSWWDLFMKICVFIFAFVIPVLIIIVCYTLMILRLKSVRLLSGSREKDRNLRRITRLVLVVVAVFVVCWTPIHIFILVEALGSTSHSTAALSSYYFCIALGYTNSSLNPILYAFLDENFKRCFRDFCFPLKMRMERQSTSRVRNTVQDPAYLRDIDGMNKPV
Method in brief: (§2)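 Membranes from cloned human receptors were incubated with compound and radioligand for 1 hour at room temperature. Bound ligand was collected on 0.3% PEI-soaked filters, washed with cold 50 mM Tris-HCl pH 7.4, and counted by scintillation. Percent inhibition was computed against DMSO totals and reference-ligand nonspecific wells.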

[3] = target: T3, Human Melanocortin (MC4) (Homo sapiens, UniProt P32245); assay: Radioligand binding, human melanocortin MC4 membranes, FlashPlate, [125I]-NDP-αMSH; conditions: compound at 10 μM; for A4 radioligand binding, percentage inhibition / A4: inhibition of radioligand binding, human melanocortin (MC4): [125I]-NDP-αMSH
T3 construct: purchased Perkin Elmer Biosignal
T3 sequence (P32245 whole entry): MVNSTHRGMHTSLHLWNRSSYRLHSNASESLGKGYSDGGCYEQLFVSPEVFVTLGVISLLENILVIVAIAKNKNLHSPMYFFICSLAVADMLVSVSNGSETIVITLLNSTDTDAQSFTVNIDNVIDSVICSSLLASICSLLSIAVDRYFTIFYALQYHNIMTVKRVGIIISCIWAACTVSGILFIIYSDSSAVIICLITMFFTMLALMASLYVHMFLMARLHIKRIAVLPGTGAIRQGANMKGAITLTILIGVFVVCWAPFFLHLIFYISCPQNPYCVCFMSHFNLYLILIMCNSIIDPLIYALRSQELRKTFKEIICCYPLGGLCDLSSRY
Method in brief: as §1

[4] = target: T4, Human melanocortin (MC5) (Homo sapiens, UniProt P33032); assay: Radioligand binding, human melanocortin MC5 membranes, FlashPlate, [125I]-NDP-αMSH; conditions: compound at 10 μM; for A5 radioligand binding, percentage inhibition / A5: inhibition of radioligand binding, human melanocortin (MC5): [125I]-NDP-αMSH
T4 construct: purchased Perkin Elmer Biosignal
T4 sequence (P33032 whole entry): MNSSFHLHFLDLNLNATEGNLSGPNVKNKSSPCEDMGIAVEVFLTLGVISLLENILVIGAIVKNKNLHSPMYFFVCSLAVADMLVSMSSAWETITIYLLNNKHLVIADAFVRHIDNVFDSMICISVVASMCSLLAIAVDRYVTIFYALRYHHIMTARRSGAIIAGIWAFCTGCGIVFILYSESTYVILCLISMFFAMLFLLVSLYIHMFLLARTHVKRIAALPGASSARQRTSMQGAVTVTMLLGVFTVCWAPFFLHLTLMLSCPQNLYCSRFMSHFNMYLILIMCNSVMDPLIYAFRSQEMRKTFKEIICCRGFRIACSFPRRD
Method in brief: as §1

[5] = target: T5, Human neurokinin (NK1) (Homo sapiens, UniProt P25103); assay: Radioligand binding, human neurokinin NK1 membranes, filtration, [125I]-Substance P; conditions: compound at 10 μM; for A8 radioligand binding, percentage inhibition / A8: inhibition of radioligand binding, human neurokinin (NK1): [125I]-Substance P
T5 construct: purchased Perkin Elmer Biosignal
T5 sequence (P25103 whole entry): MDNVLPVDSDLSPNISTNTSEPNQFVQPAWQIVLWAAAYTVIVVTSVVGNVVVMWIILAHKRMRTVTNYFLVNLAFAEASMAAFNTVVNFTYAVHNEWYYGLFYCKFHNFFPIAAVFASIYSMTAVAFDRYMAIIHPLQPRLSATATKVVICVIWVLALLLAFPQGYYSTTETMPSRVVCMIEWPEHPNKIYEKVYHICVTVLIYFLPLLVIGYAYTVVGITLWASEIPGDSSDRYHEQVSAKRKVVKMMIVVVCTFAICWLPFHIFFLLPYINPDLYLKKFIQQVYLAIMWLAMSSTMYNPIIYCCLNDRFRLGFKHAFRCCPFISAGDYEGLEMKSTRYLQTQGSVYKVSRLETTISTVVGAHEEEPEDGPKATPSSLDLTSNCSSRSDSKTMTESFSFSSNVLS
Method in brief: as §2

[6] = target: T6, Human neuropeptide Y (NPY-Y1) (Homo sapiens, UniProt P25929); assay: Radioligand binding, human neuropeptide Y NPY-Y1 membranes, FlashPlate, [125I]-PYY; conditions: compound at 10 μM; for A9 radioligand binding, percentage inhibition / A9: inhibition of radioligand binding, human neuropeptide Y (NPY-Y1): [125I]-PYY
T6 construct: purchased Perkin Elmer Biosignal
T6 sequence (P25929 1-384): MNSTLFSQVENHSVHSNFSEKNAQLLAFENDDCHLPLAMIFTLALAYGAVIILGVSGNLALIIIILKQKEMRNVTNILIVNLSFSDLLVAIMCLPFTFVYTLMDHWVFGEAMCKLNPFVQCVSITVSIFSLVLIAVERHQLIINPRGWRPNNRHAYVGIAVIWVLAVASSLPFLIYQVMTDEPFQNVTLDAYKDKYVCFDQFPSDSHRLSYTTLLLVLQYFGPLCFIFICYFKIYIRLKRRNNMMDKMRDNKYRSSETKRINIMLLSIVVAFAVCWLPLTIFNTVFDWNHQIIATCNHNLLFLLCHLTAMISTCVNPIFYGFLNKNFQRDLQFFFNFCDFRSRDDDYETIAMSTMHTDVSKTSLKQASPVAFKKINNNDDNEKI
Method in brief: as §1

[7] = target: T7, Human Melanocortin (MC3) (Homo sapiens, UniProt P41968); assay: Radioligand binding, human melanocortin MC3 membranes, FlashPlate, [125I]-NDP-αMSH; conditions: compound at 10 μM; for A3 radioligand binding, percentage inhibition / A3: inhibition of radioligand binding, human melanocortin (MC3): [125I]-NDP-αMSH
T7 construct: purchased Perkin Elmer Biosignal
T7 sequence (P41968 whole entry): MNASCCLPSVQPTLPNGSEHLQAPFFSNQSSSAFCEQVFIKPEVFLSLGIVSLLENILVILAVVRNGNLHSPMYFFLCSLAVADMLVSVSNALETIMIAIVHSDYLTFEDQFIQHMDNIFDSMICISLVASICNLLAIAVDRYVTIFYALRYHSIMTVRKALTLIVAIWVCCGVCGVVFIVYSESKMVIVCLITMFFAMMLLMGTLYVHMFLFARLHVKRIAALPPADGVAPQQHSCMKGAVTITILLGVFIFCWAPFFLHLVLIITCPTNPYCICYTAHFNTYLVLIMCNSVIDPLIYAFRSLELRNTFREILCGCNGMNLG
Method in brief: as §1

[8] = target: T8, Human δ-opioid (DOP) (Homo sapiens, UniProt P41143); assay: Radioligand binding, human δ-opioid (DOP) membranes, FlashPlate, [3H]-Bremazocine; conditions: compound at 10 μM; for A1 radioligand binding, percentage inhibition / A1: inhibition of radioligand binding, human δ-opioid (DOP): [3H]-Bremazocine
T8 construct: purchased Perkin Elmer Biosignal
T8 sequence (P41143 whole entry): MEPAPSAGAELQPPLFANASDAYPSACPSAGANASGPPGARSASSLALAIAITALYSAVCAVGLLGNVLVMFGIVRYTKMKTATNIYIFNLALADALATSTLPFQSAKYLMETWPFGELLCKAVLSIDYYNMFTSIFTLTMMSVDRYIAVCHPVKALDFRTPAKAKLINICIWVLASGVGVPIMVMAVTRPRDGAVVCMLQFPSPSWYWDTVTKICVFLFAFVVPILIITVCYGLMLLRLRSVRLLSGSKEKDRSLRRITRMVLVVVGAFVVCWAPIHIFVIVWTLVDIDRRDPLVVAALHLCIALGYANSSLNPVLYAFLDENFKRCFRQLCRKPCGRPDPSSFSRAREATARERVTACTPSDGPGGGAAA
Method in brief: as §1

[9] = target: T9, Mouse urotensin (mUR2) (Mus musculus, UniProt Q8VIH9); assay: Radioligand binding, mouse urotensin mUR2 membranes, FlashPlate, [125I]-Urotensin II; conditions: compound at 10 μM; for A11 radioligand binding, percentage inhibition / A11: inhibition of radioligand binding, mouse urotensin (mUR2): [125I]-Urotensin II
T9 construct: purchased Perkin Elmer Biosignal
T9 sequence (Q8VIH9 1-385): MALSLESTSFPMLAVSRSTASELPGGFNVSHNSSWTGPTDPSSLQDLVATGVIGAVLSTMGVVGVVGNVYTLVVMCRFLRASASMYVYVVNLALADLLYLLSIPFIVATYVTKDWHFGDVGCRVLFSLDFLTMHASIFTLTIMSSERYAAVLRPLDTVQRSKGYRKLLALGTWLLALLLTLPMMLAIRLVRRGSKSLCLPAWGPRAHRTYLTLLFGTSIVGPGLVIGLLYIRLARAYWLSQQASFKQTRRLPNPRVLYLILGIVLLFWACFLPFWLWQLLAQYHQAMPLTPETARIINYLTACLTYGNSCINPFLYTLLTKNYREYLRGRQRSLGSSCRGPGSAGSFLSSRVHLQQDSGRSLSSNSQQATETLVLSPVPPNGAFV
Method in brief: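 Cloned mouse urotensin (mUR2) receptor membranes from Perkin Elmer Biosignal were immobilized in FlashPlate microplates using a proprietary coating. Each well got 19.5 μl buffer, then 0.5 μl of DMSO, reference ligand, or compound. Adding 5 μl of [125I]-Urotensin II, diluted to 5× final concentration in binding buffer, started binding. Plates were sealed with TopSeal-A and incubated 1 hour at room temperature in the dark. Wells were counted for 30 seconds each on a TopCount after a 60-second delay, and percentage inhibition was calculated.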

[10] = target: T10, Human μ-opioid (MOP) (Homo sapiens, UniProt P35372); assay: Radioligand binding, human μ-opioid (MOP) membranes, FlashPlate, [3H]-Naloxone; conditions: compound at 10 μM; for A7 radioligand binding, percentage inhibition / A7: inhibition of radioligand binding, human μ-opioid (MOP): [3H]-Naloxone
T10 construct: purchased Perkin Elmer Biosignal
T10 sequence (P35372 whole entry): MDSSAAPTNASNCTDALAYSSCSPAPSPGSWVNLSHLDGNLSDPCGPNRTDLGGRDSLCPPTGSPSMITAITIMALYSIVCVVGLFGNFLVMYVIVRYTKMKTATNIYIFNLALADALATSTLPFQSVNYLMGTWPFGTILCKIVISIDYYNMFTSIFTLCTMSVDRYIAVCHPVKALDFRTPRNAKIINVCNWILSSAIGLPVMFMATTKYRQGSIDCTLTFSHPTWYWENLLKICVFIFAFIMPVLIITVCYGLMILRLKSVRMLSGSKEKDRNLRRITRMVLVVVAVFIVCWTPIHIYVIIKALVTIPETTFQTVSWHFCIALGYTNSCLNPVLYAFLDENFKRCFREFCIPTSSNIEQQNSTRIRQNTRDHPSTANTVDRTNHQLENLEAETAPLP
Method in brief: as §1

[11] = target: T11, Human melanin-concentrating hormone (MCH1) (Homo sapiens, UniProt Q99705); assay: Radioligand binding, human melanin-concentrating hormone MCH1 membranes, FlashPlate, [125I]-S36057; conditions: compound at 10 μM; for A6 radioligand binding, percentage inhibition / A6: inhibition of radioligand binding, human melanin-concentrating hormone (MCH1): [125I]-S36057
T11 construct: purchased Perkin Elmer Biosignal
T11 sequence (Q99705 whole entry): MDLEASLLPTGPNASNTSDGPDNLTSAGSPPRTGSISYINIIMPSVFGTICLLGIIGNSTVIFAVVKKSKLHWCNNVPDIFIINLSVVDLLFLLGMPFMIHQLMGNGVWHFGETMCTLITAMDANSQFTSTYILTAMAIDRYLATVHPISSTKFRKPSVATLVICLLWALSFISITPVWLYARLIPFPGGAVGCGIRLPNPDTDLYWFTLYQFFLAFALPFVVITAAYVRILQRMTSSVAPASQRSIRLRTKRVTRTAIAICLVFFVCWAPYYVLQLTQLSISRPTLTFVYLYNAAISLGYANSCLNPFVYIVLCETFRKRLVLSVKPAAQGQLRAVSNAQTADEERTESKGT
Method in brief: as §1

T1 sequence (P41146 whole entry): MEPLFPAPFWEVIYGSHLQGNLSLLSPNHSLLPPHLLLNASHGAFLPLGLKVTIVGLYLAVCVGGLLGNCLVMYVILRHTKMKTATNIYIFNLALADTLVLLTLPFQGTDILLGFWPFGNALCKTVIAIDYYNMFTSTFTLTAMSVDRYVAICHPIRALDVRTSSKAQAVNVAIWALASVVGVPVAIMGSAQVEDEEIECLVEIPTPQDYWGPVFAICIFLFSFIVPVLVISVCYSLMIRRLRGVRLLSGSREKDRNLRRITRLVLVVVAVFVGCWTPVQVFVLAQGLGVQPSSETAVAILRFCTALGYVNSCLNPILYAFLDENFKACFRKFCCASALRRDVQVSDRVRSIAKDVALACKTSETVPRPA

Compound | A10 radioligand binding, percentage inhibition [1] | A2 radioligand binding, percentage inhibition [2] | A4 radioligand binding, percentage inhibition [3] | A5 radioligand binding, percentage inhibition [4] | A8 radioligand binding, percentage inhibition [5] | A9 radioligand binding, percentage inhibition [6] | A3 radioligand binding, percentage inhibition [7] | A1 radioligand binding, percentage inhibition [8] | A11 radioligand binding, percentage inhibition [9] | A7 radioligand binding, percentage inhibition [10] | A6 radioligand binding, percentage inhibition [11] | A10: inhibition of radioligand binding, human opioid (ORL1) [1] | A2: inhibition of radioligand binding, human κ-opioid (KOP) [2] | A4: inhibition of radioligand binding, human melanocortin (MC4) [3] | A5: inhibition of radioligand binding, human melanocortin (MC5) [4] | A8: inhibition of radioligand binding, human neurokinin (NK1) [5] | A9: inhibition of radioligand binding, human neuropeptide Y (NPY-Y1) [6] | A3: inhibition of radioligand binding, human melanocortin (MC3) [7] | A1: inhibition of radioligand binding, human δ-opioid (DOP) [8] | A11: inhibition of radioligand binding, mouse urotensin (mUR2) [9] | other results
COC[C@H]1OC(OCc2cccc(O)c2)[C@H](NC(=O)CNC(=N)N)[C@@H](OCc2ccc(-c3ccccc3)cc2)[C@@H]1O (stereo partly shown) [compound 141] | − (“−” indicates less than 50% inhibition at 10 μM) | − (“−” indicates less than 50% inhibition at 10 μM) | − (“−” indicates less than 50% inhibition at 10 μM) | + (“+” indicates greater than 50% inhibition at 10 μM) | − (“−” indicates less than 50% inhibition at 10 μM) | − (“−” indicates less than 50% inhibition at 10 μM) | − (“−” indicates less than 50% inhibition at 10 μM) | − (“−” indicates less than 50% inhibition at 10 μM) | − (“−” indicates less than 50% inhibition at 10 μM) | − (“−” indicates less than 50% inhibition at 10 μM) | + (“+” indicates greater than 50% inhibition at 10 μM) |  |  |  |  |  |  |  |  |  | 
NCCCC(=O)NC1C(OCc2ccccc2)OC(COCc2ccc3ccccc3c2)C(O)C1OCc1ccc(Cl)cc1 (stereo not shown) [compound 372] |  |  |  |  |  |  |  |  |  |  |  | − (“−” indicates less than 50% inhibition at 10 μM) | − (“−” indicates less than 50% inhibition at 10 μM) | + (“+” indicates greater than 50% inhibition at 10 μM) | + (“+” indicates greater than 50% inhibition at 10 μM) | + (“+” indicates greater than 50% inhibition at 10 μM) | − (“−” indicates less than 50% inhibition at 10 μM) | − (“−” indicates less than 50% inhibition at 10 μM) | − (“−” indicates less than 50% inhibition at 10 μM) | − (“−” indicates less than 50% inhibition at 10 μM) | A7: inhibition of radioligand binding, human μ-opioid (MOP) [10]: − (“−” indicates less than 50% inhibition at 10 μM); A6: inhibition of radioligand binding, human melanin-concentrating hormone (MCH1) [11]: − (“−” indicates less than 50% inhibition at 10 μM)
NCCC(=O)NC1C(OCc2ccccc2)OC(COCc2ccc3ccccc3c2)C(O)C1OCc1ccc(Cl)cc1 (stereo not shown) [compound 364] |  |  |  |  |  |  |  |  |  |  |  | − (“−” indicates less than 50% inhibition at 10 μM) | − (“−” indicates less than 50% inhibition at 10 μM) | + (“+” indicates greater than 50% inhibition at 10 μM) | + (“+” indicates greater than 50% inhibition at 10 μM) | + (“+” indicates greater than 50% inhibition at 10 μM) | − (“−” indicates less than 50% inhibition at 10 μM) | + (“+” indicates greater than 50% inhibition at 10 μM) | − (“−” indicates less than 50% inhibition at 10 μM) | − (“−” indicates less than 50% inhibition at 10 μM) | A7: inhibition of radioligand binding, human μ-opioid (MOP) [10]: − (“−” indicates less than 50% inhibition at 10 μM); A6: inhibition of radioligand binding, human melanin-concentrating hormone (MCH1) [11]: − (“−” indicates less than 50% inhibition at 10 μM)
CO[C@H]1[C@H](O)[C@@H](COCc2ccc(-c3ccccc3)cc2)OC(OCc2ccc(Cl)cc2)[C@@H]1NC(=O)CCCN (stereo partly shown) [compound 95] | + (“+” indicates greater than 50% inhibition at 10 μM) | − (“−” indicates less than 50% inhibition at 10 μM) | + (“+” indicates greater than 50% inhibition at 10 μM) | + (“+” indicates greater than 50% inhibition at 10 μM) | + (“+” indicates greater than 50% inhibition at 10 μM) | − (“−” indicates less than 50% inhibition at 10 μM) | − (“−” indicates less than 50% inhibition at 10 μM) | − (“−” indicates less than 50% inhibition at 10 μM) | − (“−” indicates less than 50% inhibition at 10 μM) | − (“−” indicates less than 50% inhibition at 10 μM) | + (“+” indicates greater than 50% inhibition at 10 μM) |  |  |  |  |  |  |  |  |  | 
COC[C@H]1OC(OCCc2ccccc2)[C@H](NC(=O)CCNC(=N)N)[C@@H](OCc2ccc(Cl)cc2)[C@@H]1O (stereo partly shown) [compound 49] |  |  |  |  |  |  |  |  |  |  |  |  |  |  |  |  |  |  |  |  | A10 radioligand binding inhibition ([1]; human ORL1 membranes): − (“−” indicates less than 50% inhibition at 10 μM); A2 radioligand binding inhibition ([2]; human κ-opioid (KOP) membranes): − (“−” indicates less than 50% inhibition at 10 μM); A4 radioligand binding inhibition ([3]; human melanocortin MC4 membranes): + (“+” indicates greater than 50% inhibition at 10 μM); A5 radioligand binding inhibition ([4]; human melanocortin MC5 membranes): − (“−” indicates less than 50% inhibition at 10 μM); A8 radioligand binding inhibition ([5]; human neurokinin NK1 membranes): + (“+” indicates greater than 50% inhibition at 10 μM); A9 radioligand binding inhibition ([6]; human NPY-Y1 membranes): − (“−” indicates less than 50% inhibition at 10 μM); A3 radioligand binding inhibition ([7]; human melanocortin MC3 membranes): − (“−” indicates less than 50% inhibition at 10 μM); A1 radioligand binding inhibition ([8]; human δ-opioid (DOP) membranes): − (“−” indicates less than 50% inhibition at 10 μM); A11 radioligand binding inhibition ([9]; mouse urotensin mUR2 membranes): − (“−” indicates less than 50% inhibition at 10 μM); A7 radioligand binding inhibition ([10]; human μ-opioid (MOP) membranes): − (“−” indicates less than 50% inhibition at 10 μM); A6 radioligand binding inhibition ([11]; human MCH1 membranes): − (“−” indicates less than 50% inhibition at 10 μM)
